Test results: patent US6054429A (priority 1996, dated 2000)
Bridge positions count the residues as written; N and C are the ends. Square brackets hold non-standard residues; d marks the D form. Peptide text beside a SMILES is read from it. Hyp = O=C(O)[C@@H]1C[C@@H](O)CN1

Biological target: calcium channels in N1E115 mouse neuroblastoma cells (Mus musculus, UniProt O55017)
Format: cell-based

Sequence of calcium channels in N1E115 mouse neuroblastoma cells (O55017 whole entry): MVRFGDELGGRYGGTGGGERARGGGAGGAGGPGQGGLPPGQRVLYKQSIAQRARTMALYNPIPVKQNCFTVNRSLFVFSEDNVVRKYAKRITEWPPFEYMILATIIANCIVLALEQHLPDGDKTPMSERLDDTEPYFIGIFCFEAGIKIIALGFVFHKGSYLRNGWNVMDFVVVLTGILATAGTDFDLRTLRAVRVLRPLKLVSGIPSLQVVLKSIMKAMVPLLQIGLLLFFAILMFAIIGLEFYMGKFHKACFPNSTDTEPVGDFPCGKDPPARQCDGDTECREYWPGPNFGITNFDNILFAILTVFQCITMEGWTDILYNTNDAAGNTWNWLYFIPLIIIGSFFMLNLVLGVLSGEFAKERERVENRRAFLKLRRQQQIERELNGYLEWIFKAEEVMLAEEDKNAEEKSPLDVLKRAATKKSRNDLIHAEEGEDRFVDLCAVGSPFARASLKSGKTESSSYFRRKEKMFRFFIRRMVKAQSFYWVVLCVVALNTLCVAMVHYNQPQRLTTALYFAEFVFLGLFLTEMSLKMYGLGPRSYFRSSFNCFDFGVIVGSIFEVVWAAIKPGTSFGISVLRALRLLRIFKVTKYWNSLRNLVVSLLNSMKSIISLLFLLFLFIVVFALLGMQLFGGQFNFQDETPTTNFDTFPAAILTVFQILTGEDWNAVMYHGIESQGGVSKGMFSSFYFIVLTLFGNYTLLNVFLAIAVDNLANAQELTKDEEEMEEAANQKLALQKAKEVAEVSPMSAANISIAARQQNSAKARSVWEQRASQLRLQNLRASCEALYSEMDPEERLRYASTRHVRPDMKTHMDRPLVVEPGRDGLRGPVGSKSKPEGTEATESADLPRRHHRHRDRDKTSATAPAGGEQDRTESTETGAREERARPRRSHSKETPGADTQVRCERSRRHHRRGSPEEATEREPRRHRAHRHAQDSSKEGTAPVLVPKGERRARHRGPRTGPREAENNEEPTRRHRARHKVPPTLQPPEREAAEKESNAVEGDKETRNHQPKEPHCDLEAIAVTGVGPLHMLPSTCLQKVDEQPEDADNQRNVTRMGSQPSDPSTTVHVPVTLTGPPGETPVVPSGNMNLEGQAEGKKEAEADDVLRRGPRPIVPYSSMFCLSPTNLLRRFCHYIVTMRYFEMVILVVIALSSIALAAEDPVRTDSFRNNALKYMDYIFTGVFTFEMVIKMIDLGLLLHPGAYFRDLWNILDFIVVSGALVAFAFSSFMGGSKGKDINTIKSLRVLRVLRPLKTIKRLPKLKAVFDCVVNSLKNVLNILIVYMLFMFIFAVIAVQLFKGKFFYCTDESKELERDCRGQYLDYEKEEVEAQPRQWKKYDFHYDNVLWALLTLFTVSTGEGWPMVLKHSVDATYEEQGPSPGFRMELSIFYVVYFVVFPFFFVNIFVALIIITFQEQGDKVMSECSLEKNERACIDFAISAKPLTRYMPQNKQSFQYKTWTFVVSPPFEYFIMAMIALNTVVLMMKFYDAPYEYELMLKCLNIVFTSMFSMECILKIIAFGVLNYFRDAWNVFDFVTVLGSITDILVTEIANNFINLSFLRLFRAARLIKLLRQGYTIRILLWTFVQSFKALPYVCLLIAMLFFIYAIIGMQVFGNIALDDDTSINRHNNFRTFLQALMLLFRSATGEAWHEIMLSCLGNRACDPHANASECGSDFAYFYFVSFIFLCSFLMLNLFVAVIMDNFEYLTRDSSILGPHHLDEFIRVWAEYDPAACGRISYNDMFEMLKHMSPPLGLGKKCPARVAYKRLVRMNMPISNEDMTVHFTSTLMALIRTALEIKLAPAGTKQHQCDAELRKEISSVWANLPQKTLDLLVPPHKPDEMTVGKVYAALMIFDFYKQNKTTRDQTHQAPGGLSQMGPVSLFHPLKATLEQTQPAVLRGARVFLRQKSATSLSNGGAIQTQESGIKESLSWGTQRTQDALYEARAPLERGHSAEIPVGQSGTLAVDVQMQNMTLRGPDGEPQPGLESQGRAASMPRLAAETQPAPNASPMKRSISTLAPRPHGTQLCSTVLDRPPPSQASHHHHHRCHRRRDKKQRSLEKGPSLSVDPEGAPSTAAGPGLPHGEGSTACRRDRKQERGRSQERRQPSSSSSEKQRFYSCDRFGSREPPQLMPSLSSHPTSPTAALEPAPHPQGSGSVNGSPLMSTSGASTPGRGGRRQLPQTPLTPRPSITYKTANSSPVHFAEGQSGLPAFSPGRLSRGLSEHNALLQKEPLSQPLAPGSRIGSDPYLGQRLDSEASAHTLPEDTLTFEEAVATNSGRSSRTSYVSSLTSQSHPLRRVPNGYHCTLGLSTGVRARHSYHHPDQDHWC
Sequence of calcium channels in N1E115 mouse neuroblastoma cells (P54285 whole entry partner): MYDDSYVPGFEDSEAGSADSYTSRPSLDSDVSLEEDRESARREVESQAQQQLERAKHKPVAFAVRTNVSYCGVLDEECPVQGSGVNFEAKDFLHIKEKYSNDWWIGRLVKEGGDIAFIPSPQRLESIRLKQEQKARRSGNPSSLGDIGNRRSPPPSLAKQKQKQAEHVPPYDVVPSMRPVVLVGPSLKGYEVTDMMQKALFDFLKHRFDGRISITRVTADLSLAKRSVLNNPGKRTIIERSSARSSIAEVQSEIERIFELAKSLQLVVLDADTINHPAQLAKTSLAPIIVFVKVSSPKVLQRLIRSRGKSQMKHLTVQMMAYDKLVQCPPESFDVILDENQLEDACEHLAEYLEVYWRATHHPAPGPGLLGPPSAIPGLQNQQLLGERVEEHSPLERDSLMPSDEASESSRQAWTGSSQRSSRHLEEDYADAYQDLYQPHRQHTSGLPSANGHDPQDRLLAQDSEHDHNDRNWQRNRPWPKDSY
Sequence of calcium channels in N1E115 mouse neuroblastoma cells (O08532 25-956 partner limits assumed): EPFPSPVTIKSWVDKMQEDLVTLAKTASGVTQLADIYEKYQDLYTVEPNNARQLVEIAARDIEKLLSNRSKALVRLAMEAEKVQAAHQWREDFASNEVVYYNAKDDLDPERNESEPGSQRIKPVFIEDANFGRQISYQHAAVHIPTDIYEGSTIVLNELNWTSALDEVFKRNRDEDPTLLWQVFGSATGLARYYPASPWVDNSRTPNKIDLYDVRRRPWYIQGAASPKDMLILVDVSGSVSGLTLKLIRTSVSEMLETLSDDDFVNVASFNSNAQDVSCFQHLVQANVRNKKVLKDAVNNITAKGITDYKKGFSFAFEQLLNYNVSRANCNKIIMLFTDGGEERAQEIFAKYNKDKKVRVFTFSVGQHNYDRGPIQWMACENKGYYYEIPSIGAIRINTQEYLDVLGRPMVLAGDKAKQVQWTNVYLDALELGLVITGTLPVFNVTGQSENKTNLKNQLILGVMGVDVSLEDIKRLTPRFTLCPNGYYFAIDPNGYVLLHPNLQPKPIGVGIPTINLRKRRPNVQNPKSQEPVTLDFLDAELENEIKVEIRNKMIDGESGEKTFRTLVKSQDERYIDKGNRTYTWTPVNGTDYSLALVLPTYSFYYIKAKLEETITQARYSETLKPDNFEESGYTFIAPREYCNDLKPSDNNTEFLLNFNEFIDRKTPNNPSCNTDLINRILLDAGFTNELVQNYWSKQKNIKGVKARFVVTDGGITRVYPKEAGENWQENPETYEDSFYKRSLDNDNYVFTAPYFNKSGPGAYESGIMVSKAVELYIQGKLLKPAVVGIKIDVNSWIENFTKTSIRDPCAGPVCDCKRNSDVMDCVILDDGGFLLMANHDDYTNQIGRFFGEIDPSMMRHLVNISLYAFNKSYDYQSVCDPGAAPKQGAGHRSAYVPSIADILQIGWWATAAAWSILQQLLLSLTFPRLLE
Sequence of calcium channels in N1E115 mouse neuroblastoma cells (O08532 957-1103 partner limits assumed): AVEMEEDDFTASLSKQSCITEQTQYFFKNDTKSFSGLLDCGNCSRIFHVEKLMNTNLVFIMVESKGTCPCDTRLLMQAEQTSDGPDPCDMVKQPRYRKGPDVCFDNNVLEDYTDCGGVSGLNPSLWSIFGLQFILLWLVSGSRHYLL

## CC[C@H](C)[C@@H]1NC(=O)[C@H](CO)NC(=O)[C@H]([C@@H](C)O)NC(=O)[C@H](C(C)C)NC(=O)CNC(=O)[C@@H]2CSSC[C@@H]3NC(=O)[C@H](CCCNC(=N)N)NC(=O)CNC(=O)[C@H](CSSC[C@H](N)C(=O)N[C@@H](CCCNC(=N)N)C(=O)N[C@@H](CO)C(=O)N[C@@H](CO)C(=O)NCC(=O)N[C@@H](CO)C(=O)N4C[C@H](O)C[C@H]4C(=O)N2)NC(=O)[C@H](CSSC[C@@H](C(=O)N[C@H](C(N)=O)[C@@H](C)O)NC(=O)[C@H](CCCCN)NC(=O)CNC(=O)[C@H](CCCNC(=N)N)NC(=O)[C@H](Cc2ccc(O)cc2)NC3=O)NC1=O [SNX-157] (H-CRSSGS[Hyp]CGVTSICCGRCYRGKCT-NH2; disulfide 1-15, 8-18, 14-23)
  IC50 for calcium current (in words): not measurable within the range of concentrations tested
